14 compounds from patent publication US6410792B1, “Amide derivatives and methods for using the same as selective neuropeptide Y receptor antagonists” (Bayer Corporation, priority 1997, dated 2002) can be followed below.

In one assay the target is T1, Human NPY5 receptor (Homo sapiens, UniProt Q15761).
T1 sequence (Q15761 1-445): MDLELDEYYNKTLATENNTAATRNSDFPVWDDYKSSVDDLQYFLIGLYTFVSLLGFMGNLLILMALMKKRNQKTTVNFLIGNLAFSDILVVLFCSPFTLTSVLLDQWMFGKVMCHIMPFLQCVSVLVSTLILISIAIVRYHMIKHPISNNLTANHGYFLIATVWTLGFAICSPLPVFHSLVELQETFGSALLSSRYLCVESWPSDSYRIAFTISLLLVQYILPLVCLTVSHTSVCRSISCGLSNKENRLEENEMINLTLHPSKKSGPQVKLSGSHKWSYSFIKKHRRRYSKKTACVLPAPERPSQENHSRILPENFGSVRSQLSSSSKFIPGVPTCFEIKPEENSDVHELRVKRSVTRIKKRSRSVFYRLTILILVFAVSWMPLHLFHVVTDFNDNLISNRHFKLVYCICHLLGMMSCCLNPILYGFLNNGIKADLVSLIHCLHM
As to the kind of experiment: Human NPY5 receptor binding assay ([125I]PYY, membrane protein). The following applies: [125I]PYY binding, read-out: hNPY5 IC50. The method in brief: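 Compounds compete with porcine [125I]PYY (75-100 pM) for receptor sites on membrane protein over a 2 hour room-temperature incubation at pH 7.4. Unlabelled PYY at 1 μM defines nonspecific binding, and filter-retained radioactivity gives the read-out.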

The next assay has as its target T2, Y2 receptor (Homo sapiens, UniProt P49146).
T2 sequence (P49146 1-381): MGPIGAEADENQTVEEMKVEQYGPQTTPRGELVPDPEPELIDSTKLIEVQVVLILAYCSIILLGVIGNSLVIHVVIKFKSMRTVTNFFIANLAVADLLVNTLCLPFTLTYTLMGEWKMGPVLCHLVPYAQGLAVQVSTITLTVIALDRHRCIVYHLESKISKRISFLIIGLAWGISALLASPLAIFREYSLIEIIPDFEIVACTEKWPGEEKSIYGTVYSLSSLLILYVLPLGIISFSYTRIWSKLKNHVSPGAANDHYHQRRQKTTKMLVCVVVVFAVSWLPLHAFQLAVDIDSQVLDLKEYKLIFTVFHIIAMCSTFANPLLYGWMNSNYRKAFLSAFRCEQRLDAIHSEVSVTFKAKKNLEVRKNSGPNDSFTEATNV
Nature of the assay: Y2 receptor binding assay ([125I]PYY, membrane protein). The following applies: [125I]PYY binding, membrane protein; read-out: hNPY2 IC50. The method in brief: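 Filtration binding with membrane protein and drug dilution, 2 h at room temperature with mixing, radioactivity counted by gamma or scintillation. Y2: 25 pM [125I]PYY in Krebs-Ringer bicarbonate pH 7.4 with 0.01% BSA, nonspecific by 1 μM NPY. Y4/PP1: 50 pM [125I]hPP in HEPES-buffered saline pH 7.4 with protease inhibitors and 0.3% BSA, nonspecific by 1 μM hPP.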

As usually defined, the IC50 is the midpoint of a concentration-inhibition curve. `NC(=O)C1(NC2CCCCC2)CCN(CC(=O)Nc2ccc(C3CCCCC3)cc2)CC1` [Compound 35, 4-Cyclohexylamino-1-[(4-cyclohexyl-phenylcarbamoyl)-methyl]-piperidin-4-carboxylic acid amide]: the half-inhibitory concentration (IC50) at Human NPY5 receptor is 0.63 µM; at Y2 receptor it was > 5 µM.
The like results for `CN(C)C1CCN(CC(=O)Nc2ccc(C3CCCCC3)cc2)CC1` [Compound 32, N-(4-Cyclohexyl-phenyl)-2-(4-dimethylamino-piperidin-1-yl)-acetamide] were, in that order, 3 µM and > 5 µM.
The corresponding values for `NC[C@@H]1CCCN1CC(=O)Nc1ccc(C2CCCCC2)cc1` [Compound 91, 2-(2S-Aminomethyl-pyrrolidin-1-yl)-N-(4-cyclohexyl-phenyl)-acetamide] are 0.43 µM and > 5 µM.
`O=C(CN1CCC(N2CCCCC2)CC1)Nc1ccc(C(=O)c2ccccc2)cc1` [Compound 39, N-(4-Benzoyl-phenyl)-2-[1,4′]bipiperidinyl-1′-yl-acetamide]: the IC50 on Human NPY5 receptor was 2.1 µM; on Y2 receptor, > 5 µM.
The corresponding values for `CC(=O)NCC1(c2ccccc2)CCN(CC(=O)Nc2ccc(C(=O)c3ccccc3)cc2)CC1` [Compound 56, 2-[4-(Acetylamino-methyl)-4-phenyl-piperidin-1-yl]-N-(4-benzoyl-phenyl)-acetamide] are 0.208 µM and > 5 µM.
The corresponding values for `O=C(CN1CCN(Cc2ccccc2)CC1)Nc1ccc(C(=O)c2ccccc2)cc1` [Compound 16, N-(4-Benzoyl-phenyl)-2-(4-benzyl-piperazin-1-yl)-acetamide] are 9.6 µM and > 5 µM.
The like results for `NC(=O)C1(Nc2ccccc2)CCN(CC(=O)Nc2ccc(C(=O)c3ccccc3)cc2)CC1` [Compound 47, 1-[(4-Benzoyl-phenylcarbamoyl)-methyl]-4-phenylamino-piperidine-4-carboxylic acid amide] were, in that order, 1.2 µM and > 5 µM.
Turning to `O=C(CN1CCC(O)(c2cccc(C(F)(F)F)c2)CC1)Nc1ccc(C(=O)c2ccccc2)cc1` [Compound 63, N-(4-Benzoyl-phenyl)-2-[4-hydroxy-4-(3-trifluoromethyl-phenyl)-piperidin-1-yl]-acetamide], the values for the IC50 at Human NPY5 receptor and on Y2 receptor were 0.57 µM and > 5 µM, respectively.
The like results for `O=C(CN1CCC(Cc2ccccc2)CC1)Nc1ccc(C(=O)c2ccccc2)cc1` [Compound 38, N-(4-Benzoyl-phenyl)-2-(4 benzyl-piperidin-1-yl)-acetamide] were, in that order, 8.5 µM and > 5 µM.
Turning to `CC(O)C1CCN(CC(=O)Nc2ccc(C(=O)c3ccccc3)cc2)CC1` (stereo not shown) [Compound 70, N-(4-Benzoyl-phenyl)-2-[4-(1-hydroxy-ethyl)-piperidin-1-yl]-acetamide], the figures for the half-maximal inhibitory concentration (IC50) on Human NPY5 receptor and on Y2 receptor were 3.7 µM and > 5 µM, respectively.
The like results for `O=C(CN1C[C@H](O)C[C@H]1C(=O)O)Nc1ccc(C2CCCCC2)cc1` [Compound 98, (2S,4R)-1-[(4-Cyclohexyl-phenylcarbamoyl)-methyl]-4-hydroxy-pyrrolidine-2-carboxylic acid] were, in that order, > 10 µM and > 5 µM.
The corresponding values for “1-[(4-Cyclohexyl-phenylcarbamoyl)-methyl]-piperidine-4-carboxylic acid [Compound 25]” are 1.9 µM and > 5 µM.
The like results for `O=C(CN1CCC[C@@H]1C(O)(c1ccccc1)c1ccccc1)Nc1ccc(C(=O)c2ccccc2)cc1` [Compound 82, N-(4-Benzoyl-phenyl)-2-[2R-(hydroxy-diphenyl-methyl)-pyrrolidin-1-yl]-acetamide] were, in that order, > 5 µM and > 5 µM.
Regarding `O=C(CN1CCC[C@H]1CO)Nc1ccc(C(=O)c2ccccc2)cc1` [Compound 85, N-(4-Benzoyl-phenyl)-2-(2S-hydroxymethyl-pyrrolidin-1-yl)-acetamide], the results for the IC50 at Human NPY5 receptor and at Y2 receptor were 2.8 µM and > 5 µM, respectively.
